For 2 compounds, solubility results are on record in patent EP1051405B1, “NOVEL DIHYDROXYHEXANOIC ACID DERIVATIVES” (Pfizer Products Inc., priority 1998, dated 1999).

Each structure is given as a SMILES string.

This series is described as follows: physchem. As to conditions: phosphate buffer, pH 7, aqueous buffer.

Procedure: Solubility of the compounds is determined at four fixed concentrations and is expressed as µg/mL. Solubility or insolubility is measured in phosphate buffer using a turbidometric plate reader by automated micro addition of a compound predissolved in DMSO. Solubilities at 50, 100, 200 and 250 or 100, 200, 400 and 500 micrograms/mL can be determined by predissolving 1 mg of compound in sufficient DMSO to reach an initial concentration of 20 or 40 µg/ µL.
A spectramax 250 UV transparent 96 well microplate is filled with 200 µL of Stock pH 7 phosphate buffer solution. A series of 25 absorption readings in a 5 by 5 matrix at a wavelength of 492nm are taken for each well in the microplate containing pH buffer alone. […]
After compound addition, a second scan consisting of a series of 25 absorption readings in a 5 by 5 matrix are taken for each well in the microplate at the same wavelength as the first blank scan. The raw compound OD values for each reading in the 5 by 5 matrix are subtracted from the corresponding "blank" values in the 5 by 5 matrix to provide the raw solubility OD data.
Data obtained from the Tecan SLT Spectra Image Reader is then analyzed using a Visual Basic computer program (or can be calculated manually according to methods well known to those of ordinary skill in the art), so as to provide solubility data for each compound.

One may read the solubility as the concentration that dissolves in the medium under given conditions. High values mean a readily soluble substance, low ones a poorly soluble substance. `CC(C)(O)CC[C@H](C[C@H](O)[C@H](Cc1cccc(Cl)c1)NC(=O)c1cnc2ccccc2n1)C(N)=O` [Example 2, Quinoxaline-2-carboxylic acid [4(R)-carbamoyl-1(S)-(3-chloro-benzyl)-2(S),7-dihydroxy-7-methyl-octyl]-amide] showed a solubility greater than 100 µg/mL.

In the case of `CC(C)(F)CC[C@H](C[C@H](O)[C@H](Cc1ccccc1)NC(=O)c1cnc(Cl)c(Cl)c1)C(N)=O` [Example 247], the solubility was less than 5 µg/mL.
